Measured values reported in PubChem BioAssay (NCI).
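Grown in 96-well plates, cells were treated for 48 hours with each compound at five concentrations. Insufficient inhibition: endpoint recorded as highest concentration tested. Definition used: TGI = concentration required for complete inhibition of growth.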

Experiments:
Assay in all cases: NCI tumour cell line growth inhibition, 48 h
SF-539 CNS = system: SF-539 CNS
RPMI-8226 leukemia = system: RPMI-8226 leukemia
SF-295 CNS = system: SF-295 CNS
A549 NSCLC = system: A549 NSCLC
U251 CNS = system: U251 CNS
SNB-75 CNS = system: SNB-75 CNS
M14 melanoma = system: M14 melanoma
UACC-62 melanoma = system: UACC-62 melanoma
TK-10 renal = system: TK-10 renal
CAKI-1 renal = system: CAKI-1 renal
SK-OV-3 ovarian = system: SK-OV-3 ovarian
SK-MEL-2 melanoma = system: SK-MEL-2 melanoma
SF-268 CNS = system: SF-268 CNS
OVCAR-3 ovarian = system: OVCAR-3 ovarian
EKVX NSCLC = system: EKVX NSCLC
CCRF-CEM leukemia = system: CCRF-CEM leukemia
SK-MEL-5 melanoma = system: SK-MEL-5 melanoma
OVCAR-8 ovarian = system: OVCAR-8 ovarian
SW-620 colon = system: SW-620 colon
SR leukemia = system: SR leukemia
HOP-62 NSCLC = system: HOP-62 NSCLC
SK-MEL-28 melanoma = system: SK-MEL-28 melanoma
LOX IMVI melanoma = system: LOX IMVI melanoma
HS 578T breast = system: HS 578T breast
UO-31 renal = system: UO-31 renal
PC-3 prostate = system: PC-3 prostate
NCI-H460 lung = system: NCI-H460 lung
MDA-N = system: MDA-N
K-562 leukemia = system: K-562 leukemia
MOLT-4 leukemia = system: MOLT-4 leukemia
NCI-H226 lung = system: NCI-H226 lung
BT-549 breast = system: BT-549 breast
HL-60(TB) leukemia = system: HL-60(TB) leukemia
SNB-19 CNS = system: SNB-19 CNS
HOP-92 NSCLC = system: HOP-92 NSCLC
RXF 393 renal = system: RXF 393 renal
NCI/ADR-RES ovarian = system: NCI/ADR-RES ovarian
OVCAR-4 ovarian = system: OVCAR-4 ovarian
HCT-15 colon = system: HCT-15 colon
A498 renal = system: A498 renal
T-47D breast = system: T-47D breast
MCF7 breast = system: MCF7 breast
COLO 205 colon = system: COLO 205 colon
ACHN renal = system: ACHN renal
786-0 renal = system: 786-0 renal
DU-145 prostate = system: DU-145 prostate
MDA-MB-435 = system: MDA-MB-435
HCT-116 colon = system: HCT-116 colon
HT29 colon = system: HT29 colon
MDA-MB-231 breast = system: MDA-MB-231 breast
NCI-H522 lung = system: NCI-H522 lung
KM12 colon = system: KM12 colon
UACC-257 melanoma = system: UACC-257 melanoma
SN12C renal = system: SN12C renal
NCI-H23 lung = system: NCI-H23 lung
HCC-2998 colon = system: HCC-2998 colon
OVCAR-5 ovarian = system: OVCAR-5 ovarian
IGROV1 ovarian = system: IGROV1 ovarian
MALME-3M melanoma = system: MALME-3M melanoma

## COc1cc(/C=C/C(=O)N[C@@H]2C(=O)N3[C@@H]2SC(C)(C)[C@@H]3C(=O)O)ccc1O
SF-539 CNS
  TGI: > 100 µM
RPMI-8226 leukemia
  TGI: > 100 µM
SF-295 CNS
  TGI: > 100 µM
A549 NSCLC
  TGI: > 100 µM
U251 CNS
  TGI: > 100 µM
SNB-75 CNS
  TGI: > 100 µM
M14 melanoma
  TGI: > 100 µM
UACC-62 melanoma
  TGI: > 100 µM
TK-10 renal
  TGI: > 100 µM
CAKI-1 renal
  TGI: > 100 µM
SK-OV-3 ovarian
  TGI: > 100 µM
SK-MEL-2 melanoma
  TGI: > 100 µM
SF-268 CNS
  TGI: > 100 µM
OVCAR-3 ovarian
  TGI: > 100 µM
EKVX NSCLC
  TGI: > 100 µM
CCRF-CEM leukemia
  TGI: > 100 µM
SK-MEL-5 melanoma
  TGI: > 100 µM
OVCAR-8 ovarian
  TGI: > 100 µM
SW-620 colon
  TGI: > 100 µM
SR leukemia
  TGI: > 100 µM
HOP-62 NSCLC
  TGI: > 100 µM
SK-MEL-28 melanoma
  TGI: > 100 µM
LOX IMVI melanoma
  TGI: > 100 µM
HS 578T breast
  TGI: > 100 µM
UO-31 renal
  TGI: > 100 µM
PC-3 prostate
  TGI: > 100 µM
NCI-H460 lung
  TGI: > 100 µM
MDA-N
  TGI: > 100 µM
K-562 leukemia
  TGI: > 100 µM
MOLT-4 leukemia
  TGI: > 100 µM
NCI-H226 lung
  TGI: > 100 µM
BT-549 breast
  TGI: > 100 µM
HL-60(TB) leukemia
  TGI: > 100 µM
SNB-19 CNS
  TGI: > 100 µM
HOP-92 NSCLC
  TGI: > 100 µM
RXF 393 renal
  TGI: > 100 µM
NCI/ADR-RES ovarian
  TGI: > 100 µM
OVCAR-4 ovarian
  TGI: > 100 µM
HCT-15 colon
  TGI: > 100 µM
A498 renal
  TGI: > 100 µM
T-47D breast
  TGI: > 100 µM
MCF7 breast
  TGI: > 100 µM
COLO 205 colon
  TGI: > 100 µM
ACHN renal
  TGI: > 100 µM
786-0 renal
  TGI: > 100 µM
DU-145 prostate
  TGI: > 100 µM
MDA-MB-435
  TGI: > 100 µM
HCT-116 colon
  TGI: > 100 µM
HT29 colon
  TGI: > 100 µM
MDA-MB-231 breast
  TGI: > 100 µM
NCI-H522 lung
  TGI: > 100 µM
KM12 colon
  TGI: > 100 µM
UACC-257 melanoma
  TGI: > 100 µM
SN12C renal
  TGI: > 100 µM
NCI-H23 lung
  TGI: > 100 µM
HCC-2998 colon
  TGI: > 100 µM
OVCAR-5 ovarian
  TGI: > 100 µM

## O=C(/C=C/c1ccc(O)c(O)c1)O[C@H]1CCCC[C@@H]1OC(=O)/C=C/c1ccc(O)c(O)c1
SF-539 CNS
  TGI: > 100 µM
RPMI-8226 leukemia
  TGI: > 100 µM
SF-295 CNS
  TGI: 33.3 µM
A549 NSCLC
  TGI: > 100 µM
U251 CNS
  TGI: > 100 µM
SNB-75 CNS
  TGI: > 100 µM
M14 melanoma
  TGI: 77.9 µM
UACC-62 melanoma
  TGI: 27.4 µM
IGROV1 ovarian
  TGI: 55 µM
TK-10 renal
  TGI: 57.7 µM
CAKI-1 renal
  TGI: > 100 µM
SK-OV-3 ovarian
  TGI: 41.3 µM
SK-MEL-2 melanoma
  TGI: 84.3 µM
SF-268 CNS
  TGI: 38.8 µM
OVCAR-3 ovarian
  TGI: 26.7 µM
EKVX NSCLC
  TGI: 53.8 µM
CCRF-CEM leukemia
  TGI: 61 µM
SK-MEL-5 melanoma
  TGI: 21.4 µM
OVCAR-8 ovarian
  TGI: 57.1 µM
SW-620 colon
  TGI: 19.5 µM
SR leukemia
  TGI: > 100 µM
HOP-62 NSCLC
  TGI: 41.1 µM
SK-MEL-28 melanoma
  TGI: 44.1 µM
LOX IMVI melanoma
  TGI: 17 µM
HS 578T breast
  TGI: > 100 µM
UO-31 renal
  TGI: 27.8 µM
PC-3 prostate
  TGI: > 100 µM
NCI-H460 lung
  TGI: > 100 µM
MDA-N
  TGI: 26.5 µM
K-562 leukemia
  TGI: > 100 µM
MOLT-4 leukemia
  TGI: > 100 µM
BT-549 breast
  TGI: 63.6 µM
MALME-3M melanoma
  TGI: 32.6 µM
SNB-19 CNS
  TGI: 73.8 µM
HOP-92 NSCLC
  TGI: 52.1 µM
RXF 393 renal
  TGI: 27.6 µM
NCI/ADR-RES ovarian
  TGI: 91.2 µM
OVCAR-4 ovarian
  TGI: > 100 µM
HCT-15 colon
  TGI: 35.7 µM
A498 renal
  TGI: 43.2 µM
T-47D breast
  TGI: 98.8 µM
MCF7 breast
  TGI: 70.2 µM
COLO 205 colon
  TGI: 56.2 µM
ACHN renal
  TGI: 38.3 µM
786-0 renal
  TGI: 46 µM
DU-145 prostate
  TGI: 41.8 µM
MDA-MB-435
  TGI: 27.1 µM
HCT-116 colon
  TGI: 19 µM
MDA-MB-231 breast
  TGI: > 100 µM
NCI-H522 lung
  TGI: 20.8 µM
KM12 colon
  TGI: 73.3 µM
UACC-257 melanoma
  TGI: 77 µM
SN12C renal
  TGI: 50.1 µM
NCI-H23 lung
  TGI: 33.7 µM
HCC-2998 colon
  TGI: 33.7 µM
OVCAR-5 ovarian
  TGI: 33.9 µM

## CCC1=C(CC2NCCc3cc(OC)c(OC)cc32)CC2c3ccccc3CCN2C1 (stereo not given)
SF-539 CNS
  TGI: 21.4 µM
RPMI-8226 leukemia
  TGI: 30.4 µM
SF-295 CNS
  TGI: 76.3 µM
A549 NSCLC
  TGI: > 100 µM
U251 CNS
  TGI: 27.6 µM
SNB-75 CNS
  TGI: 87.9 µM
M14 melanoma
  TGI: 27.3 µM
UACC-62 melanoma
  TGI: 28.8 µM
IGROV1 ovarian
  TGI: > 100 µM
TK-10 renal
  TGI: > 100 µM
CAKI-1 renal
  TGI: > 100 µM
SK-OV-3 ovarian
  TGI: > 100 µM
SK-MEL-2 melanoma
  TGI: 29.2 µM
SF-268 CNS
  TGI: > 100 µM
OVCAR-3 ovarian
  TGI: > 100 µM
EKVX NSCLC
  TGI: > 100 µM
CCRF-CEM leukemia
  TGI: 33.6 µM
SK-MEL-5 melanoma
  TGI: 28 µM
OVCAR-8 ovarian
  TGI: > 100 µM
SW-620 colon
  TGI: 37.3 µM
SR leukemia
  TGI: 24.1 µM
HOP-62 NSCLC
  TGI: > 100 µM
SK-MEL-28 melanoma
  TGI: 29 µM
LOX IMVI melanoma
  TGI: 26.3 µM
HS 578T breast
  TGI: 49.7 µM
UO-31 renal
  TGI: 36.3 µM
PC-3 prostate
  TGI: 78.3 µM
NCI-H460 lung
  TGI: 25.1 µM
MDA-N
  TGI: 27 µM
K-562 leukemia
  TGI: 22 µM
MOLT-4 leukemia
  TGI: 43.9 µM
NCI-H226 lung
  TGI: 73.6 µM
BT-549 breast
  TGI: > 100 µM
MALME-3M melanoma
  TGI: 27.7 µM
HL-60(TB) leukemia
  TGI: 46.5 µM
SNB-19 CNS
  TGI: > 100 µM
HOP-92 NSCLC
  TGI: 42.6 µM
RXF 393 renal
  TGI: > 100 µM
NCI/ADR-RES ovarian
  TGI: > 100 µM
OVCAR-4 ovarian
  TGI: > 100 µM
HCT-15 colon
  TGI: > 100 µM
A498 renal
  TGI: 28.5 µM
T-47D breast
  TGI: 54.5 µM
MCF7 breast
  TGI: 42.7 µM
COLO 205 colon
  TGI: 21.8 µM
ACHN renal
  TGI: > 100 µM
786-0 renal
  TGI: 35.6 µM
DU-145 prostate
  TGI: > 100 µM
MDA-MB-435
  TGI: 25.8 µM
HCT-116 colon
  TGI: > 100 µM
HT29 colon
  TGI: 20.6 µM
MDA-MB-231 breast
  TGI: 74.4 µM
NCI-H522 lung
  TGI: 29.1 µM
KM12 colon
  TGI: > 100 µM
UACC-257 melanoma
  TGI: 32 µM
SN12C renal
  TGI: > 100 µM
OVCAR-5 ovarian
  TGI: > 100 µM
